# pIC50, pKi: −log10 of the molar value.
# Molecular target: NAALADase (Homo sapiens, UniProt Q04609)
# Assay: In vitro inhibition of NAALADase activity
# Type: biochemical
# Details: not given
# Chain of NAALADase (Q04609 whole entry): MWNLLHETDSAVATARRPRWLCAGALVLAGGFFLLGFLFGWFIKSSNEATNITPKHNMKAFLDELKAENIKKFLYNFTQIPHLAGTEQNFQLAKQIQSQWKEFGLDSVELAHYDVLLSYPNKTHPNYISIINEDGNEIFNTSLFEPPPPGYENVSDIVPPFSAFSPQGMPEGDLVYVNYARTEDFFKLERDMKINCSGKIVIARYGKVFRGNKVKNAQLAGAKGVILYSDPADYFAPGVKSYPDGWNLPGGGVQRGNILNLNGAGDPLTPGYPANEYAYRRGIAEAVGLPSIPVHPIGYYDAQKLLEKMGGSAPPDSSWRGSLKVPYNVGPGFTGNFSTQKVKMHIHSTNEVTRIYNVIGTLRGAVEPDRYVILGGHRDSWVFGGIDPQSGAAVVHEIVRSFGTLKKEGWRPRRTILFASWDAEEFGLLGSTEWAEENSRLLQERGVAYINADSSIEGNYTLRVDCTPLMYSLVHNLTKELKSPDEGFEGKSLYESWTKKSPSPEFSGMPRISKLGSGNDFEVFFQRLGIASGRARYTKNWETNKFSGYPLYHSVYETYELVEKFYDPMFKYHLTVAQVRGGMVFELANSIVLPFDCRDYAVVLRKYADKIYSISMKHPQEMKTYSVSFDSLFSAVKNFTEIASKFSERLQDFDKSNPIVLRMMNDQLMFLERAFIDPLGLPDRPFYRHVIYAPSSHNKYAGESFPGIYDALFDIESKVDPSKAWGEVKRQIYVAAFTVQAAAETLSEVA
row,Compound,pKi
1,"O=C(O)c1ccc(OCCCSSCCCOc2ccc(C(=O)O)cc2C(=O)O)c(C(=O)O)c1 [4-[3-[[3-(2,4-dicarboxyphenoxy)-propyl]-dithio]propoxy]-1,3-benzenedicarboxylic acid]",5.43
2,"O=C(O)c1cc(C(=O)O)cc(P(=O)(O)O)c1 [5-phosphono-1,3-benzenedicarboxylic acid]",4.85

# Same assay, conditions: IC50
row,Compound,pIC50
1,"O=C(NO)c1ccccc1O [2,N-Dihydroxy-benzamide]",≤ 4.00

# Same assay, conditions: read-out: IC50
row,Compound,pIC50
1,O=C(O)c1cc(CC(CCCS)C(=O)O)ccc1F (stereo not drawn) [3-carboxy-4-fluoro-alpha-(3-mercaptopropyl)-benzenepropanoic acid],7.92
2,O=C(O)c1ccccc1CC(CCCS)C(=O)O (stereo not drawn) [2-carboxy-alpha-(3-mercaptopropyl)-benzenepropanoic acid],5.77
3,O=C(COc1cc(C(=O)O)cc(C(=O)O)c1)NO [5-Hydroxycarbamoylmethoxy-isophthalic acid],4.83
4,O=C(O)c1ccc(Cl)c(OC(CCCS)C(=O)O)c1 (stereo not drawn) [3-(1-carboxy-4-mercaptobutoxy)-4-chloro-benzoic acid],6.93
5,"O=C(O)c1cccc(CC(CCCS)C(=O)O)c1 (single isomer, unassigned; (+)) [(+)-3-carboxy-alpha-(3-mercaptopropyl)-benzenepropanoic acid]",8.15
6,O=C(O)C(CCCS)Cc1ccc(-c2ccccc2)cc1 (stereo not drawn) [alpha-(3-mercaptopropyl)-4-phenyl-benzenepropanoic acid],6.64
7,O=C(COc1ccccc1C(=O)O)NO [2-Hydroxycarbamoylmethoxy-benzoic acid],≤ 4.00
8,O=C(O)c1cc(CS)ccc1OCCc1ccccc1 [5-(mercaptomethyl)-2-(2-phenylethoxy)-benzoic acid],6.73
9,O=C(CSCc1ccc(OCc2ccc(C(=O)O)cc2)c(C(=O)O)c1)NO,5.88
10,O=C(O)c1c(CCS)cccc1OCc1ccccc1 [2-(2-mercaptoethyl)-6-(phenylmethoxy)-benzoic acid],7.94
11,COC(=O)c1cc(C(=O)NO)ccc1OCc1ccccc1 [6-Benzyloxy-N-hydroxy-isophthalamic acid methyl ester],≤ 4.00
12,O=C(CSCCCC(Cc1cc(OCc2ccccc2)cc(C(=O)O)c1)C(=O)O)NO (stereo not drawn) [3-Benzyloxy-5-(2-carboxy-5-hydroxycarbamoylmethyl-sulfanylpentyl)-benzoic acid],5.59
13,O=C(O)c1cccc(CC(CCCS)C(=O)O)c1 (stereo not drawn) [3-carboxy-alpha-(3-mercaptopropyl)-benzenepropanoic acid],7.77
14,"O=C(O)c1ccc(-c2cccc(CCS)c2C(=O)O)cc1 [3-(2-mercaptoethyl)-[1,1′-biphenyl]-2,4′-dicarboxylic acid]",8.37
15,O=C(NCc1ccccc1)c1cccc(CC(CCCS)C(=O)O)c1 (stereo not drawn) [alpha-(3-mercaptopropyl)-3-[[(phenylmethyl)amino]carbonyl]-benzenepropanoic acid],5.95
16,CC(=O)c1ccc(OC(CCCS)C(=O)O)cc1 (stereo not drawn) [2-(4-acetylphenoxy)-5-mercaptopentanoic acid],7.53
17,O=C(CSCCCC(Cc1cc(C(=O)O)ccc1Cl)C(=O)O)NO (stereo not drawn) [3-(2-Carboxy-5-hydroxycarbamoylmethyl-sulfanylpentyl)-4-chloro-benzoic acid],4.80
18,O=C(O)c1cc(O)ccc1CCS [5-hydroxy-2-(2-mercaptoethyl)-benzoic acid],5.04
19,"O=C(O)c1ccccc1-c1cccc(CC(CCCS)C(=O)O)c1 (stereo not drawn) [3′-(2-carboxy-5-mercaptopentyl)-[1,1′-biphenyl]-2-carboxylic acid]",6.74
20,O=C(O)c1ccc(F)c(OC(CCCS)C(=O)O)c1 (stereo not drawn) [3-(1-carboxy-4-mercaptobutoxy)-4-fluoro-benzoic acid],6.40
21,"CC(C)(C)c1cc(COc2cccc(CCS)c2C(=O)O)cc(C(=O)O)c1 [2-[[3-carboxy-5-(1,1-dimethylethyl)phenyl]methoxy]-6-(2-mercaptoethyl)-benzoic acid]",7.63

row,Compound,pIC50
1,O=C(O)c1ccccc1Oc1cccc(CC(CCCS)C(=O)O)c1 (stereo not drawn) [3-(2-carboxyphenoxy)-alpha-(3-mercaptopropyl)-benzenepropanoic acid],7.31
2,O=C(O)C(CCCS)Cc1cccc(-c2ccccc2)c1 (stereo not drawn) [alpha-(3-mercaptopropyl)-3-phenyl-benzenepropanoic acid],6.74
3,"O=C(NO)c1ccc(O)c(C(=O)O)c1 [6,N-Dihydroxy-isophthalamic acid]",≤ 4.00
4,O=C(O)c1ccc(OC(CCCS)C(=O)O)cc1 (stereo not drawn) [4-(1-carboxy-4-mercaptobutoxy)-benzoic acid],6.72
5,O=C(CSCC(Cc1cccc(C(=O)O)c1)C(=O)O)NO (stereo not drawn) [3-(2-Carboxy-3-hydroxycarbamoylmethyl-sulfanylpropyl)-benzoic acid],5.51
6,"O=C(O)c1cc(CC(CCCS)C(=O)O)ccc1-c1ccccc1 (stereo not drawn) [4-(2-carboxy-5-mercaptopentyl)-[1,1′-biphenyl]-2-carboxylic acid]",7.74
7,O=C(COc1cccc(C(=O)O)c1)NO [3-Hydroxycarbamoylmethoxy-benzoic acid],4.39
8,COc1ccc(C(=O)O)cc1OC(CCCS)C(=O)O (stereo not drawn) [3-(1-carboxy-4-mercaptobutoxy)-4-methoxy-benzoic acid],6.54
9,"O=C(COc1cccc(-c2cccc(C(=O)O)c2)c1C(=O)O)NO [3-Hydroxycarbamoylmethoxy-biphenyl-2,3′-dicarboxylic acid]",4.56
10,O=C(CSCCCC(Cc1cccc(-c2ccccc2)c1)C(=O)O)NO (stereo not drawn) [2-Biphenyl-3-ylmethyl-5-hydroxy-carbamoylmethylsulfanyl-pentanoic acid],5.38
11,O=C(O)c1cccc(CCS)c1 [3-(2-mercaptoethyl)-benzoic acid],5.22
12,"COc1ccc(OC)c(CC(CCCS)C(=O)O)c1 (stereo not drawn) [alpha-(3-mercaptopropyl)-2,5-dimethoxy-benzenepropanoic acid]",6.25
13,"COC(=O)c1cccc(-c2cccc(OCCC(=O)NO)c2C(=O)OC)c1 [3-(2-Hydroxycarbamoyl-ethoxy)-biphenyl-2,3′-dicarboxylic acid dimethyl ester]",≤ 4.00
14,O=C(O)Cc1cccc(OC(CCCS)C(=O)O)c1 (stereo not drawn) [3-(1-carboxy-4-mercaptobutoxy)-benzeneacetic acid],7.19
15,"CC(S)CCC(Cc1cc(C(=O)O)cc(C(C)(C)C)c1)C(=O)O (stereo not drawn) [3-carboxy-5-(1,1-dimethylethyl)-alpha-(3-mercaptobutyl)-benzenepropanoic acid]",9.00
16,O=C(CSCCc1cccc(OCc2ccc(C(=O)O)cc2)c1C(=O)O)NO,4.85
17,CN(O)C(=O)CSCCCC(Cc1cccc(C(=O)O)c1)C(=O)O (stereo not drawn) [3-{2-Carboxy-5-[(hydroxy-methyl-carbamoyl)-methylsulfanyl]-pentyl}-benzoic acid],4.83
18,O=C(O)c1ccc(Br)c(CC(CCCS)C(=O)O)c1 (stereo not drawn) [2-bromo-5-carboxy-alpha-(3-mercaptopropyl)-benzenepropanoic acid],8.48
19,O=C(O)C(CCCS)Oc1cccc(O)c1 (stereo not drawn) [2-(3-hydroxyphenoxy)-5-mercapto-pentanoic acid],6.07
20,O=C(O)c1cc(CC(CCCS)C(=O)O)cc([N+](=O)[O-])c1 (stereo not drawn) [3-carboxy-alpha-(3-mercaptopropyl)-5-nitro-benzenepropanoic acid],8.52
21,O=C(O)c1ccc([N+](=O)[O-])c(CC(CCCS)C(=O)O)c1 (stereo not drawn) [5-carboxy-alpha-(3-mercaptopropyl)-2-nitro-benzenepropanoic acid],8.08

# — patent US20040186081A1, “Naaladase inhibitors for treating opioid tolerance” (Guilford Pharmaceuticals Inc., priority 2003, published 2004)
